Test results from ChEMBL document CHEMBL1629476, “Synthesis and biological evaluation of aminoketones” (2010).
Values after ≈ are worked out from the molar mass of the structure shown.

Assays:
Format in all cases: functional
Staphylococcus aureus = assay: Antibacterial activity against Staphylococcus aureus after 16 hrs by serial dilution method
Bacillus subtilis = assay: Antibacterial activity against Bacillus subtilis after 16 hrs by serial dilution method
Escherichia coli = assay: Antibacterial activity against Escherichia coli after 16 hrs by serial dilution method
Pseudomonas aeruginosa = assay: Antibacterial activity against Pseudomonas aeruginosa after 16 hrs by serial dilution method

Q: How did the MIC (Staphylococcus aureus) turn out when `COc1ccc(F)c(C(Nc2ccc(F)cc2F)C2CCCCC2=O)c1` (stereo not drawn) was run?
A: 3.12 µg/mL (≈ 8.6 µM)

Q: And the MIC (Bacillus subtilis)?
A: 1.61 µg/mL (≈ 4.44 µM)

Q: And the MIC (Escherichia coli)?
A: 1.61 µg/mL (≈ 4.44 µM)

Q: What about the MIC (Pseudomonas aeruginosa) of the same molecule?
A: 1.61 µg/mL (≈ 4.44 µM)

Q: `CC(C)(C)c1ccc(NC(c2ccccc2)C2CCCCC2=O)cc1` (stereo not drawn) was tested. Which MIC (Staphylococcus aureus) did it give?
A: 6.25 µg/mL (≈ 18.6 µM)

Q: What about the MIC (Bacillus subtilis) of the same molecule?
A: 6.25 µg/mL (≈ 18.6 µM)

Q: What about the MIC (Escherichia coli) of the same molecule?
A: 12.5 µg/mL (≈ 37.3 µM)

Q: And the MIC (Pseudomonas aeruginosa)?
A: 6.25 µg/mL (≈ 18.6 µM)

Q: With `O=C1CCCCC1C(Nc1ccc(F)cc1F)c1ccc(F)cc1` (stereo not drawn) as the molecule, how does the MIC (Staphylococcus aureus) read?
A: 1.61 µg/mL (≈ 4.84 µM)

Q: And the MIC (Bacillus subtilis)?
A: 1.61 µg/mL (≈ 4.84 µM)

Q: What about the MIC (Escherichia coli) of the same molecule?
A: 1.61 µg/mL (≈ 4.84 µM)

Q: And the MIC (Pseudomonas aeruginosa)?
A: 1.61 µg/mL (≈ 4.84 µM)

Q: Which results are given for `N#Cc1ccc(NC(c2ccccc2Cl)C2CCCCC2=O)cc1` (stereo not drawn)?
A: MIC (Staphylococcus aureus): 3.12 µg/mL (≈ 9.22 µM); MIC (Bacillus subtilis): 1.61 µg/mL (≈ 4.76 µM); MIC (Escherichia coli): 1.61 µg/mL (≈ 4.76 µM); MIC (Pseudomonas aeruginosa): 1.61 µg/mL (≈ 4.76 µM)

Q: With `O=C1CCCCC1C(Nc1ccc(F)c(F)c1)c1ccccc1F` (stereo not drawn) as the molecule, how does the MIC (Staphylococcus aureus) read?
A: 3.12 µg/mL (≈ 9.37 µM)

Q: What about the MIC (Bacillus subtilis) of the same molecule?
A: 1.61 µg/mL (≈ 4.84 µM)

Q: And the MIC (Escherichia coli)?
A: 1.61 µg/mL (≈ 4.84 µM)

Q: And the MIC (Pseudomonas aeruginosa)?
A: 1.61 µg/mL (≈ 4.84 µM)

Q: For `C=CCOc1ccccc1C(Nc1cccc(F)c1)C1CCCCC1=O` (stereo not drawn), which MIC (Staphylococcus aureus) is on record?
A: 6.25 µg/mL (≈ 17.7 µM)

Q: What about the MIC (Bacillus subtilis) of the same molecule?
A: 3.12 µg/mL (≈ 8.84 µM)

Q: What about the MIC (Escherichia coli) of the same molecule?
A: 3.12 µg/mL (≈ 8.84 µM)

Q: And the MIC (Pseudomonas aeruginosa)?
A: 6.25 µg/mL (≈ 17.7 µM)

Q: `COc1cccc(NC(c2cccc(C)c2O)C2CCCCC2=O)c1` (stereo not drawn) was tested. Which MIC (Staphylococcus aureus) did it give?
A: 1.61 µg/mL (≈ 4.75 µM)

Q: And the MIC (Bacillus subtilis)?
A: 1.61 µg/mL (≈ 4.75 µM)

Q: What about the MIC (Escherichia coli) of the same molecule?
A: 1.61 µg/mL (≈ 4.75 µM)

Q: And the MIC (Pseudomonas aeruginosa)?
A: 1.61 µg/mL (≈ 4.75 µM)

Q: Which results are given for `CCc1ccc(C(Nc2cc(F)c(F)c(F)c2)C2CCCCC2=O)cc1` (stereo not drawn)?
A: MIC (Staphylococcus aureus): 12.5 µg/mL (≈ 34.6 µM); MIC (Bacillus subtilis): 12.5 µg/mL (≈ 34.6 µM); MIC (Escherichia coli): 12.5 µg/mL (≈ 34.6 µM); MIC (Pseudomonas aeruginosa): 12.5 µg/mL (≈ 34.6 µM)

Q: What does the source list for `CCc1ccc(C(Nc2ccc(C)c([N+](=O)[O-])c2)C2CCCCC2=O)cc1` (stereo not drawn)?
A: MIC (Staphylococcus aureus): 6.25 µg/mL (≈ 17.1 µM); MIC (Bacillus subtilis): 6.25 µg/mL (≈ 17.1 µM); MIC (Escherichia coli): 6.25 µg/mL (≈ 17.1 µM); MIC (Pseudomonas aeruginosa): 25 µg/mL (≈ 68.2 µM)

Q: With `O=C1CCCCC1C(Nc1cccc2ccccc12)c1cc2ccccc2o1` (stereo not drawn) as the molecule, how does the MIC (Staphylococcus aureus) read?
A: 3.12 µg/mL (≈ 8.46 µM)

Q: And the MIC (Bacillus subtilis)?
A: 3.12 µg/mL (≈ 8.46 µM)

Q: And the MIC (Escherichia coli)?
A: 1.61 µg/mL (≈ 4.37 µM)

Q: What about the MIC (Pseudomonas aeruginosa) of the same molecule?
A: 1.61 µg/mL (≈ 4.37 µM)

Q: Which results are given for `Cc1cc2cc(NC(c3ccncc3)C3CCCCC3=O)ccc2[nH]1` (stereo not drawn)?
A: MIC (Staphylococcus aureus): 3.12 µg/mL (≈ 9.37 µM); MIC (Bacillus subtilis): 1.61 µg/mL (≈ 4.84 µM); MIC (Escherichia coli): 1.61 µg/mL (≈ 4.84 µM); MIC (Pseudomonas aeruginosa): 1.61 µg/mL (≈ 4.84 µM)

Q: For `CO/N=C(\C(=O)N[C@@H]1C(=O)N2C(C(=O)O)=C(CSc3nc(=O)c(O)nn3C)CS[C@H]12)c1csc(N)n1` [CEFTRIAXONE], which MIC (Staphylococcus aureus) is on record?
A: 3.12 µg/mL (≈ 5.63 µM)

Q: What about the MIC (Bacillus subtilis) of the same molecule?
A: 1.61 µg/mL (≈ 2.91 µM)

Q: What about the MIC (Escherichia coli) of the same molecule?
A: 1.61 µg/mL (≈ 2.91 µM)

Q: What about the MIC (Pseudomonas aeruginosa) of the same molecule?
A: 1.61 µg/mL (≈ 2.91 µM)
